Results reported in ChEMBL document CHEMBL4402554, “Discovery of a Bromodomain and Extraterminal Inhibitor with a Low Predicted Human Dose through Synergistic Use of Encoded Library Technology and Fragment Screening” (J Med Chem, 2020).
Where “and” joins values, the source holds several entries; their conditions need not be identical. Equal values may be shown once. Calls of active or inactive are those of the source. The calls are words filed in the database; no cut-off is given here.

Experiments:
[1] = target: T1, Bromodomain-containing protein 4 (Homo sapiens, UniProt O60885, Y390A); assay: Displacement of Alexa Fluor 647 labelled ligand from recombinant human N-terminal His6-tagged BRD4 BD1 (1 to 477 residues)/BD2 Y390A mutant incubated for 30 mins by TR-FRET assay
[2] = target: T1, Bromodomain-containing protein 4; assay: Displacement of Alexa Fluor 647 labelled ligand from recombinant human N-terminal His6-tagged BRD4 BD1 (1 to 477 residues)/BD2 Y390A mutant incubated for 60 mins by fluorescence polarization assay
[3] = Lipophilicity, log D of the compound at pH 7.4 by chromatographic method; type: physicochemical; details: buffer
[4] = Clearance in rat at 1 mg/kg, iv; type: ADME, organism-based; details: in vivo
[5] = Metabolic stability in rat liver microsomes; type: ADME, Microsome
[6] = Stability in human hepatocytes; type: ADME, cell-based, Hepatocyte
[7] = Oral bioavailability in dog at 1 mg/kg; type: ADME, organism-based, Canis lupus familiaris; details: in vivo
Blood [8] = assay: Inhibition of LPS-induced MCP1 production in human whole blood preincubated for 30 mins followed by LPS addition measured after 18 to 24 hrs; type: functional, tissue-based
Blood [9] = assay: Inhibition of LPS-induced IL6 production in human whole blood preincubated for 30 mins followed by LPS addition measured after 18 to 24 hrs; type: functional, tissue-based
[10] = Clearance in dog at 0.5 mg/kg, iv; type: ADME, organism-based, Canis lupus familiaris; details: in vivo
[11] = Solubility of compound in pH 6.5 FASSIF at 1 mg incubated for 4 hrs by HPLC-UV analysis; type: physicochemical
[12] = Half life in dog at 0.5 mg/kg, iv; type: ADME, organism-based, Canis lupus familiaris; details: in vivo
[13] = Fraction unbound in rat plasma at 1 mg/kg, iv; type: ADME, organism-based
[14] = Volume of distribution at steady state in dog at 0.5 mg/kg, iv; type: ADME, organism-based, Canis lupus familiaris; details: in vivo; for Vd: read-out: Vdss
[15] = Metabolic stability in human liver microsomes; type: ADME, Microsome
[16] = Unbound clearance in dog at 0.5 mg/kg, iv; type: ADME, organism-based, Canis lupus familiaris; details: in vivo
[17] = Stability in dog hepatocytes; type: ADME, cell-based, Canis lupus familiaris, Hepatocyte
[18] = Fraction unbound in human plasma; type: ADME, cell-free
[19] = Half life in rat at 1 mg/kg, iv; type: ADME, organism-based; details: in vivo
[20] = Volume of distribution at steady state in rat at 1 mg/kg, iv; type: ADME, organism-based; details: in vivo, read-out: Vdss
[21] = Stability in rat hepatocytes; type: ADME, cell-based, Hepatocyte
[22] = Metabolic stability in dog liver microsomes; type: ADME, Canis lupus familiaris, Microsome
[23] = target: Bromodomain adjacent to zinc finger domain protein 2A (Homo sapiens, UniProt Q9UIF9); assay: Inhibition of BAZ2A (unknown origin) by TR-FRET assay
[24] = Unbound clearance in rat at 1 mg/kg, iv; type: ADME, organism-based; details: in vivo
[25] = Fraction unbound in dog plasma at 0.5 mg/kg, iv; type: ADME, organism-based, Canis lupus familiaris
Homo sapiens = organism: Homo sapiens; assay: Selectivity ratio of pIC50 for Alexa Fluor 647 labelled ligand from recombinant human N-terminal His6-tagged BRD4 BD1 (1 to 477 residues)/BD2 Y390A mutant to pIC50 for BAZ2A (unknown origin)
[26] = Oral bioavailability in rat at 3 mg/kg; details: in vivo
[27] = AUC (0 to infinity) in CD-1 mouse at 3 mg/kg, po; type: ADME, organism-based; parameters: dose 3 mg/kg, route oral, time infinity; details: in vivo
Mus musculus [28] = assay: Antiinflammatory activity in TNP-KLH- treated CD-1 mouse T cell-dependent immunization model assessed as IgG1 level at 3 mg/kg, po qd treated for 0.5 hrs followed by TNP-KLH treatment and measured after 14 days by ELISA analysis; type: functional
[29] = Metabolic stability in CD-1 mouse liver microsomes; type: ADME, Microsome
Mus musculus [30] = assay: Antiinflammatory activity in TNP-KLH- treated CD-1 mouse T cell-dependent immunization model assessed as IgG1 level at 3 mg/kg, po qod treated for 0.5 hrs followed by TNP-KLH treatment and measured after 14 days by ELISA analysis; type: functional
Mus musculus [31] = assay: Antiinflammatory activity in LPS-challenged CD-1 mouse assessed as reduction in cytokine production at 1 to 10 mg/kg, po administrated as single dose 30 mins prior to LPS challenge measured after 5 hrs by immunoassay; type: functional, organism-based
[32] = AUC (0 to infinity) in rat at 30 mg/kg, po; type: ADME, organism-based; parameters: dose 30 mg/kg, route oral, time infinity; details: in vivo
[33] = AUC (0 to infinity) in dog at 1.5 mg/kg, po; type: ADME, organism-based, Canis lupus familiaris; parameters: dose 1.5 mg/kg, route oral, time infinity; details: in vivo
[34] = AUC (0 to infinity) in rat at 3 mg/kg, po; type: ADME, organism-based; parameters: dose 3 mg/kg, route oral, time infinity; details: in vivo
[35] = Oral bioavailability in rat at 30 mg/kg; type: ADME, organism-based; details: in vivo
Mus musculus [36] = assay: Antiinflammatory activity in TNP-KLH- treated CD-1 mouse T cell-dependent immunization model assessed as IgG1 level at 0.3 mg/kg, po qd treated for 0.5 hrs followed by TNP-KLH treatment and measured after 14 days by ELISA analysis; type: functional
[37] = Stability in CD-1 mouse hepatocytes; type: ADME, cell-based, Hepatocyte

Sequence of Bromodomain adjacent to zinc finger domain protein 2A (Q9UIF9 whole entry, the tested form may be a part): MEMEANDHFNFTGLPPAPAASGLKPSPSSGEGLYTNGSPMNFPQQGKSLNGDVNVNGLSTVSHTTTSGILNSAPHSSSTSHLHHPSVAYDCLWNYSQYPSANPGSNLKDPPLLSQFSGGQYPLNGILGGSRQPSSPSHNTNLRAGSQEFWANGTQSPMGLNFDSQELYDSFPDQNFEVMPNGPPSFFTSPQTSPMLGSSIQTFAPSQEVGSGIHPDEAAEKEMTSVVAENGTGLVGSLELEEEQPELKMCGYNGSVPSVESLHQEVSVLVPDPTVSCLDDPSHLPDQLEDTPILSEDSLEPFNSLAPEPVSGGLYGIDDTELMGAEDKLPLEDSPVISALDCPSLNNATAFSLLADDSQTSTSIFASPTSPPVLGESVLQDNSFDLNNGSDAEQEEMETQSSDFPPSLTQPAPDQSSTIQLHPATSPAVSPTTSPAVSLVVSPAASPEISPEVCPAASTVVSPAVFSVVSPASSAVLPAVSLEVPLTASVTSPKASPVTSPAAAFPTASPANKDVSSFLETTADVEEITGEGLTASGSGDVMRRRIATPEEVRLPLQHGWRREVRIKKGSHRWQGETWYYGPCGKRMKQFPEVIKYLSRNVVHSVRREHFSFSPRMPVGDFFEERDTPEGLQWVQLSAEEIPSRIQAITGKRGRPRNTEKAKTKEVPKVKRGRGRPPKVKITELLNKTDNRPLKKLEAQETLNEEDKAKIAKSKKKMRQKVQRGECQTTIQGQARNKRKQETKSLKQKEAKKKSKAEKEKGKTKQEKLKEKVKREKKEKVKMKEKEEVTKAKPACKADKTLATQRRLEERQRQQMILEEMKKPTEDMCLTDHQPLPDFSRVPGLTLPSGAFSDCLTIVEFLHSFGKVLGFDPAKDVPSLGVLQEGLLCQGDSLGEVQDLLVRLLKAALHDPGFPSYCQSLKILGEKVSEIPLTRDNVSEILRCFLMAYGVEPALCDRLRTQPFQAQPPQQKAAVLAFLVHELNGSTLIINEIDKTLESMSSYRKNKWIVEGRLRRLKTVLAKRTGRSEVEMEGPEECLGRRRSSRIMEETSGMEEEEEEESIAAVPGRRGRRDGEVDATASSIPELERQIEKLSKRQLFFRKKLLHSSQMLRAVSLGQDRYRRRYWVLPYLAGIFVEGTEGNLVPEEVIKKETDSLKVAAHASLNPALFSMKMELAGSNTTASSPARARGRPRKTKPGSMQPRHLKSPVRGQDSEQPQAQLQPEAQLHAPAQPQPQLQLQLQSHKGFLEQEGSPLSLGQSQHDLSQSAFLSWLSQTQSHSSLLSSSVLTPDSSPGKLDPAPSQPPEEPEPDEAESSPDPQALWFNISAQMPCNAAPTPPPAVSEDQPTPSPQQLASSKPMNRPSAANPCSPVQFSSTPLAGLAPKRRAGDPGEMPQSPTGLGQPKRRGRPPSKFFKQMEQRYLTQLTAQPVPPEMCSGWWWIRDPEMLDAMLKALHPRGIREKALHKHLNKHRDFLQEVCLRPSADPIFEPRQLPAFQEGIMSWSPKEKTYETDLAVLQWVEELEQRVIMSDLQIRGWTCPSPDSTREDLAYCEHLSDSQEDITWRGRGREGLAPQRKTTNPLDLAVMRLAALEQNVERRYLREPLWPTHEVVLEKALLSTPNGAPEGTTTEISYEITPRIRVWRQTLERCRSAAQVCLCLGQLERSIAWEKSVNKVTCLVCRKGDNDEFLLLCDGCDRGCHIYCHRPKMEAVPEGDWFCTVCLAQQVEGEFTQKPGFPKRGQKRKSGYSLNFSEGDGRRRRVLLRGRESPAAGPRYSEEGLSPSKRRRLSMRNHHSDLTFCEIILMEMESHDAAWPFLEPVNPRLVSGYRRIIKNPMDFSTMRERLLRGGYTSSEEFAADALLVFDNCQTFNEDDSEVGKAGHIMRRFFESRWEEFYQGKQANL

Compound `CC(=O)N[C@H]1CC[C@@H](Cn2c(-c3cc(C)c(O)c(C)c3)nc3ccccc32)CC1` has an IC50 [1] of 501 nM.

In the case of `CNC(=O)c1ccc2c(c1)nc(-c1cc(C)c(O)c(C)c1)n2CC1CCN(C(C)=O)CC1`, the IC50 [2] is reported as 251 nM and the chromatographic logD [3] is reported as 2.

With `Cc1cc(-c2nc3ccccc3n2CC2CCOCC2)cn(C)c1=O` the clearance [4] was 82 mL/min/kg, the Stability [5] was 3.2 mL/min/g and the Stability [6] was under 0.87 mL/min/g. It also gave a bioavailability [7] of 97%, an IC50 (Blood [8]) of 251 nM and an IC50 (Blood [9]) of 200 nM. The clearance [10] was 8 mL/min/kg, the solubility at 4 h [11] was over 1000 µg/mL and the half-life [12] was 2.3 h. It also gave a fraction unbound [13] of 0.55, a Vd [14] of 1.4 L/kg and a Stability [15] of 0.83 mL/min/g. For the same compound, the CL free [16] was 17 mL/min/kg, the Stability [17] was under 1.3 mL/min/g and the fraction unbound [18] was 0.4. The half-life [19] was 0.2 h, the Vd [20] was 1.4 L/kg and the Stability [21] was 17 mL/min/g. It also gave a Stability [22] of under 0.37 mL/min/g, an IC50 [23] of 316 nM and a CL free [24] of 149 mL/min/kg. It also gave a fraction unbound [25] of 0.47.

`CC(=O)N1CCC(n2c(-c3cc(C)c(O)c(C)c3)nc3ccccc32)CC1` showed an IC50 [1] of 1580 nM.

Compound `CC(=O)N1CC(Cn2c(-c3cc(C)c(O)c(C)c3)nc3ccccc32)C1` has an IC50 [1] of 1580 nM.

Compound `CC(=O)N1CCC(Cn2c(-c3cc(C)c(O)c(C)c3)nc3ccccc32)CC1` has an IC50 [1] of 501 nM.

`Cc1cc(-c2nc3ccccc3n2CC2CC3(COC3)C2)cn(C)c1=O` showed a Ratio pIC50 (Homo sapiens) of 3.1, an IC50 [1] of 50.1 nM and a Stability [5] of 0.99 mL/min/g. It also gave a Stability [15] of under 0.4 mL/min/g and an IC50 [23] of 63100 nM.

With `Cn1cc(-c2nc3ccccc3n2CC2CCN(C(=O)CO)CC2)ccc1=O` the IC50 [1] was 7940 nM.

In the case of `O=C(CO)N1CCC(Cn2c(-c3ccc(=O)[nH]c3)nc3ccccc32)CC1`, the IC50 [1] is reported as over 50100 nM.

In the case of `Cc1cc(-c2nc3ccccc3n2CC2CCCOC2)cn(C)c1=O` (configuration not stated), the IC50 [1] is reported as 31.6 nM and 25.1 nM and the IC50 [23] is reported as 25100 nM and 79400 nM.

Compound `COCC(COC)n1c(-c2cc(C)c(=O)n(C)c2)nc2ccccc21` has a clearance [4] of 37 mL/min/kg, a Ratio pIC50 (Homo sapiens) of over 3.7 and an IC50 [1] of 39.8 nM. For the same compound, the Stability [5] was under 0.46 mL/min/g, the Stability [6] was under 0.87 mL/min/g and the bioavailability [7] was 46%. The clearance [10] was 5 mL/min/kg, the half-life [12] was 1.7 h and the fraction unbound [13] was 0.59. For the same compound, the Vd [14] was 0.8 L/kg, the Stability [15] was under 0.4 mL/min/g and the CL free [16] was 9 mL/min/kg. The Stability [17] was under 1.3 mL/min/g, the fraction unbound [18] was 0.37 and the half-life [19] was 3.2 h. It also gave a Vd [20] of 2.1 L/kg, a bioavailability [26] of 46% and a Stability [21] of 1.1 mL/min/g. For the same compound, the Stability [22] was under 0.37 mL/min/g, the IC50 [23] was over 100000 nM and the CL free [24] was 63 mL/min/kg. It also gave a fraction unbound [25] of 0.57.

`Cc1cc(-c2nc3ccccc3n2CCC2CCOCC2)cn(C)c1=O` showed a Ratio pIC50 (Homo sapiens) of 2.9, an IC50 [1] of 50.1 nM and an IC50 [23] of 39800 nM.

Work on `Cc1cc(-c2nc3cc(N4CCOCC4)ccc3n2CC2CCOCC2)cn(C)c1=O` yielded an IC50 [1] of 10 nM, an IC50 (Blood [8]) of 12.6 nM and a solubility at 4 h [11] of over 1000 µg/mL. The chromatographic logD [3] was 2.3.

`CC(=O)N[C@H]1CC[C@H](Cn2c(-c3cc(C)c(O)c(C)c3)nc3ccccc32)CC1` gave an IC50 [1] of 1580 nM.

In the case of `CCC(C1CCOCC1)n1c(-c2cc(C)c(=O)n(C)c2)nc2ccccc21` (configuration not stated), the Ratio pIC50 (Homo sapiens) is reported as > 2.1 and 1.6 and the IC50 [1] is reported as 794 nM and 158 nM.

`Cn1cc(-c2nc[nH]c2-c2ccc(F)cc2)ccc1=O` gave an IC50 [1] of 6310 nM.

With `COCC(C)n1c(-c2cc(C)c(=O)n(C)c2)nc2ccccc21` (racemic) the Ratio pIC50 (Homo sapiens) was 2.1, the IC50 [1] was 316 nM and the IC50 [23] was 39800 nM.

In the case of `Cc1cc(-c2nc3ccccc3n2CC2CCN(C(=O)CO)CC2)c[nH]c1=O`, the IC50 [1] is reported as 1580 nM.

`Cc1cc(-c2nc3ccccc3n2C[C@H]2CC[C@H](O)CC2)cn(C)c1=O` gave a Ratio pIC50 (Homo sapiens) of 2.8, an IC50 [1] of 79.4 nM and an IC50 [23] of 50100 nM.

`CC(=O)N1CCC(Cn2c(-c3cc(C)c(O)c(C)c3)nc3ccccc32)C1` (racemic) showed an IC50 [1] of 2510 nM.

For `CNC(=O)c1ccc2c(c1)nc(-c1cc(C)c(O)c(C)c1)n2CC1CCNCC1`, the IC50 [1] was 2000 nM and the chromatographic logD [3] was 0.8.

With `Cc1cc(-c2nc3ccccc3n2C(C)C2CCOCC2)cn(C)c1=O` (configuration not stated) the Ratio pIC50 (Homo sapiens) was 1.4 and 0.9.

In the case of `COCC(COC)n1c(-c2cc(C)c(=O)n(C)c2)nc2cc(N3CCOCC3)ccc21`, the AUC(0-inf) [27] is reported as 3620 ng·h/mL, the clearance [4] is reported as 17 mL/min/kg and the Activity (Mus musculus [28]) is reported as 20%. For the same compound, the Stability [5] was under 0.46 mL/min/g, the Stability [6] was under 0.87 mL/min/g and the Stability [29] was under 0.48 mL/min/g. It also gave a bioavailability [7] of 101%, an IC50 (Blood [8]) of 25.1 nM and an IC50 (Blood [9]) of 20 nM. The Activity (Mus musculus [30]) was 65%, the t1/2 [12] was 5.3 h and the Activity (Mus musculus [31]) was “Active”. It also gave a fraction unbound [13] of 0.69, a Vdss [14] of 0.9 L/kg and a Stability [15] of under 0.4 mL/min/g. The AUC(0-inf) [32] was 27000 ng·h/mL, the AUC(0-inf) [33] was 12500 ng·h/mL and the AUC(0-inf) [34] was 2610 ng·h/mL. The CL free [16] was 4 mL/min/kg, the bioavailability [35] was 93% and the Stability [17] was under 1.3 mL/min/g. The Activity (Mus musculus [36]) was 65%, the fraction unbound [18] was 0.72 and the Stability [37] was under 1 mL/min/g. The half-life [19] was 3.8 h, the Vd [20] was 2.3 L/kg and the bioavailability [26] was 94%. The Stability [21] was under 0.8 mL/min/g, the Stability [22] was under 0.37 mL/min/g and the IC50 [23] was 63100 nM. The CL free [24] was 24 mL/min/kg and the fraction unbound [25] was 0.5.

Compound `CNC(=O)c1ccc2c(c1)nc(-c1cc(C)c(O)c(C)c1)n2CC1CCN(C(=O)c2ccccc2)CC1` has an IC50 [1] of 200 nM, an IC50 [2] of 126 nM and a chromatographic logD [3] of 3.2.

Work on `Cc1cc(-c2nc3cc(N(C)C)ccc3n2CC2CCOCC2)cn(C)c1=O` yielded a chromatographic logD [3] of 2.9.
